Data: paper PMC4891385 (Clinical Drug Investigation, 2016)

Legend:
Type in all cases: in vitro ADME
OATP1B3 = biological target: T1, OATP1B3 (Homo sapiens, UniProt Q9NPD5); assay: [14C]-lesinurad uptake, substrate test, hOATP1B3 MDCK-II cells
T1 sequence (Q9NPD5 1-702): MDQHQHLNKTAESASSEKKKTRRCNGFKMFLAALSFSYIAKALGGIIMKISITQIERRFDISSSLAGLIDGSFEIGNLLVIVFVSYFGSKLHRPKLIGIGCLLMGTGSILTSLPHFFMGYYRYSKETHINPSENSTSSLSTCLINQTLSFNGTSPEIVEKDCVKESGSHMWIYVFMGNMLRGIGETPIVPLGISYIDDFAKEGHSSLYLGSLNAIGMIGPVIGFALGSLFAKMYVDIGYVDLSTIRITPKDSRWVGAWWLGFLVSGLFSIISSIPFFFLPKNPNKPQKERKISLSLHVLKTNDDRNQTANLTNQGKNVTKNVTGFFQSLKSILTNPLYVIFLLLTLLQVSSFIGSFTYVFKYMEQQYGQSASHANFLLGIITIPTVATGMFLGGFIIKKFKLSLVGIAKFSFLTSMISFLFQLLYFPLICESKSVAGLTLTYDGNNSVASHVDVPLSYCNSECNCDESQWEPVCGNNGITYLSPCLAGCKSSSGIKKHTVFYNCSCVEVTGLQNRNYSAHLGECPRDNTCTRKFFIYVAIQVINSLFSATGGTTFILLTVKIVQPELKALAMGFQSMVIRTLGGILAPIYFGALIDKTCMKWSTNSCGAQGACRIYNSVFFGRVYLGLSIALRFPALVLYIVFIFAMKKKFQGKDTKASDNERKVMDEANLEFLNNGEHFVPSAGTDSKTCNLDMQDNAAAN

OAT3 = biological target: T2, OAT3 (Homo sapiens, UniProt Q8TCC7); assay: [14C]-lesinurad uptake, substrate test, OAT3 oocytes
T2 sequence (Q8TCC7 1-542): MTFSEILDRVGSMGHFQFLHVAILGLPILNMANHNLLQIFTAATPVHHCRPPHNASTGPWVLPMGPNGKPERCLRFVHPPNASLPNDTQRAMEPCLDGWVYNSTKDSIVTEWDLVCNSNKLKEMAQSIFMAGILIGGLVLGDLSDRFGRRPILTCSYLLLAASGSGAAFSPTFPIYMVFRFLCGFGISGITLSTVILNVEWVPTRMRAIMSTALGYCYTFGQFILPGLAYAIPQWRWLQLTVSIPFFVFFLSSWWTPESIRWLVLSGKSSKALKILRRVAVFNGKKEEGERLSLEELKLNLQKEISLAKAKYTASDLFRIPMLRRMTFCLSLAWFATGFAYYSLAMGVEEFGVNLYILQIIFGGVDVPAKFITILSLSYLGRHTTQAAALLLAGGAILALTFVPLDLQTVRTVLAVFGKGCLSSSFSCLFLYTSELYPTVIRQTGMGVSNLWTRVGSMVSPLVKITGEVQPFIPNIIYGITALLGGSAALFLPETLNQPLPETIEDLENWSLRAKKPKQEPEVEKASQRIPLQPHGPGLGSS

OCT2 = biological target: T3, OCT2 (Homo sapiens, UniProt O15244); assay: [14C]-lesinurad uptake, substrate test, hOCT2 MDCK-II cells
T3 sequence (O15244 1-555): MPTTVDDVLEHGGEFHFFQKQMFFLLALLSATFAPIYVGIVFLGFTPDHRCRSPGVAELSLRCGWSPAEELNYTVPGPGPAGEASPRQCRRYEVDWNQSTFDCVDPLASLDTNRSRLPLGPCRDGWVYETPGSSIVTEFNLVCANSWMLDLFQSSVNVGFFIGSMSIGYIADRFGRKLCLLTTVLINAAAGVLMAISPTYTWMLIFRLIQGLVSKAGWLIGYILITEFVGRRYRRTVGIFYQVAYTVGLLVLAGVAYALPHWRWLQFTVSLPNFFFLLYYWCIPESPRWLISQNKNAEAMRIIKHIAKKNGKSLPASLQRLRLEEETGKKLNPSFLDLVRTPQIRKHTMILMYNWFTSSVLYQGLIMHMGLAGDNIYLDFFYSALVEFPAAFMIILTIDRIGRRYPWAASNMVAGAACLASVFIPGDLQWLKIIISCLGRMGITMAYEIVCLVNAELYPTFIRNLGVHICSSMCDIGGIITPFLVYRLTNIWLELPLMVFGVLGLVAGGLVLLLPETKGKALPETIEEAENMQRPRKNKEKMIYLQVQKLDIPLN

P-gp = P-gp (Homo sapiens, UniProt P08183); assay: [14C]-lesinurad substrate test, MDCK-MDR1 cells
OAT1 = biological target: T4, OAT1 (Homo sapiens, UniProt Q4U2R8); assay: [14C]-lesinurad uptake, substrate test, OAT1 oocytes
T4 sequence (Q4U2R8 1-563): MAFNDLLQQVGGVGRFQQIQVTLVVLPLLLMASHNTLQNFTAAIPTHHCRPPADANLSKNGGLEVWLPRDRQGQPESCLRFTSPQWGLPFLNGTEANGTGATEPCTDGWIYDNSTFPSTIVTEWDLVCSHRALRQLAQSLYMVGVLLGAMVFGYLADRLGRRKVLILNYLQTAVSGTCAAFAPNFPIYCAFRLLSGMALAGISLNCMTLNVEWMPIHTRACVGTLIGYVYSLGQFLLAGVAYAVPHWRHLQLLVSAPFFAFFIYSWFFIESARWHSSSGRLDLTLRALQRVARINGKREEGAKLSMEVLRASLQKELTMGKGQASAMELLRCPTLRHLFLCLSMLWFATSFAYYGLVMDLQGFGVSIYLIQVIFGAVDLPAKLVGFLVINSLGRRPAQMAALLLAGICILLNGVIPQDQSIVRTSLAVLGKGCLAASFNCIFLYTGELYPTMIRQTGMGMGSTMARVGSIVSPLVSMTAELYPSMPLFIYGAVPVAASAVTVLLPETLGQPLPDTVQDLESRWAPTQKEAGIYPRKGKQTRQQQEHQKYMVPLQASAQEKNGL

Sequence of P-gp (P08183 whole entry): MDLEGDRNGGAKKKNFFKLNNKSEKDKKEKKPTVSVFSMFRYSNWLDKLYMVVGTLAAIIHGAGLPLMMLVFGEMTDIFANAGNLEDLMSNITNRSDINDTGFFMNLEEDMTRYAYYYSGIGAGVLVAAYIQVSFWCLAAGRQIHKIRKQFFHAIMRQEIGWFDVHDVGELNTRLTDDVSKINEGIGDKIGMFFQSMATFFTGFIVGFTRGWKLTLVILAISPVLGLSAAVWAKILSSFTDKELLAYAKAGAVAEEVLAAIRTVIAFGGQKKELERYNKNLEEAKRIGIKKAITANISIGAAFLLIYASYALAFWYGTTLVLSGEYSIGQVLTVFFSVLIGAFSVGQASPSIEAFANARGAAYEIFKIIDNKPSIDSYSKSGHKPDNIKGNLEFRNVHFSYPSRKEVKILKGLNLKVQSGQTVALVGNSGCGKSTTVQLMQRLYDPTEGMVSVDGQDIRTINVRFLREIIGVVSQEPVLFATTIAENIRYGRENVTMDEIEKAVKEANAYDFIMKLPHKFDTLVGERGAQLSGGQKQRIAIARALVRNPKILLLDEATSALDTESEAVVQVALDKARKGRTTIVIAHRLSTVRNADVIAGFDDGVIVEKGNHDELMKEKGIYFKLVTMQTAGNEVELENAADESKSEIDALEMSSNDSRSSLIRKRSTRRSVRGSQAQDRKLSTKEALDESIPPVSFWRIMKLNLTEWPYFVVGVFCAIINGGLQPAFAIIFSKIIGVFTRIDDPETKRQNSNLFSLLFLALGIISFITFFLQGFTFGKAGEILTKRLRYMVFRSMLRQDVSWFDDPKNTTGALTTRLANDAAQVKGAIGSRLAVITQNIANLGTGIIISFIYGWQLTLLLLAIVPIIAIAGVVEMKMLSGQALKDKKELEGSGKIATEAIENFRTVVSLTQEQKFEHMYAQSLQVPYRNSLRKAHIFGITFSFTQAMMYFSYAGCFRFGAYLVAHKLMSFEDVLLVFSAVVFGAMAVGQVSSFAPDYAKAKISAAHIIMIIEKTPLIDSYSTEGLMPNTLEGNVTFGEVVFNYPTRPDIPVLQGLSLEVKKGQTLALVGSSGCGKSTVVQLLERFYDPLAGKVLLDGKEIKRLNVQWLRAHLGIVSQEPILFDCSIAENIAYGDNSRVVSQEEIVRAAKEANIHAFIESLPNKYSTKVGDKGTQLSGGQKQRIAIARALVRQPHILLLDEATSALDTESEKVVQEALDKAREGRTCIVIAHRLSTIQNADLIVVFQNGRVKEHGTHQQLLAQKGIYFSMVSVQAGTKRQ

Structure (SMILES): O=C(O)CSc1nnc(Br)n1-c1ccc(C2CC2)c2ccccc12 [lesinurad]
- Lesinurad as substrate (OATP1B3): not a substrate
- Lesinurad as substrate (OAT3): substrate
- Lesinurad as substrate (OCT2): not a substrate
- Lesinurad as substrate (P-gp): not a substrate
- Lesinurad as substrate (OAT1): substrate
